Legend:
[1] = system: splenocytes of DNA-immunized mice; experiment: IFN-γ ELISPOT and ICS with modified HIVA immunogens; format: cell-based, BALB/c mice; details: for recognition of altered peptides by splenocytes (IFN-γ): Figure 2A and B, mice immunized with dHmP and dHmPG1, respectively
Description: To further investigate this phenomenon, we serially inactivated CD8^+ T cell epitopes in the order of their immunodominance. To maintain the HIVA protein integrity, epitopes P and G1 were mutated rather than deleted by substituting the anchor amino acid residues required for a strong binding to the H-2K^d molecule (Figure 2A). The resulting double and triple mutants of the HIVA immunogen were called dHmP and dHmPG1, respectively. […] Groups of BALB/c mice were immunized 2x using the modified HIVA immunogens vectored by plasmid DNA and the immune responses were measured in IFN-γ ELISPOT, ICS and in vivo killing assays. […] Second, consistently in all three assays, immune responses directed against subdominant epitopes were serially recovered, however, not to the same extent. […] Because the response to the G2 epitope remained undetectable even in the dHmPG1-immunized mice, overlapping 15/11 peptides across the whole HIVA immunogen were used again to search for another yet unidentified epitope of a higher rank. […] (Figure 2D). […] Thus, step-wise deletion of immunodominant CD8^+ T cell epitopes restores responses to the subdominant epitopes in the hierarchy.
Figure 2 Serial up-ranking of epitopes. A) Groups of 4 BALB/c mice were immunized 2x i.m. with 100 µg of DNA at a 2-wk interval. Two wk later, splenocytes were assessed in an ELISPOT assay for production of IFN-γ upon re-stimulation with peptides indicated above. Shown are schematic diagrams of HIVA and the three modified immunogens with representative examples of the ELISPOT well images. B) Mice were immunized as in A and 4 wk later, splenocytes were assessed in an ICS assay to measure CD8^+ T cells secreting IFN-γ upon re-stimulation with peptide indicated in the top left corner. Group means±SD are shown. C) Identical groups of mice were assessed for cytolytic activity in an in vivo lysis of syngeneic peptide-pulsed cells transferred into naïve or vaccinated animals. Representative examples of dot plots are shown (top) and the peptide-specific lyses are expressed as a group mean±SD (bottom). D) Groups of 3 BALB/c mice were immunized 3x with 100 µg of DNA indicated above the dot plot in 2-wk intervals and the designated NPP peptide-specific responses were assessed by IFN-γ ICS 2 wk later. The FACS plots are representative examples with IFN-γ producing cells as a percentage of CD8^+ splenocytes shown in the top right panels. All experiments were repeated at least once. TEXT PRINTED IN THE PICTURE: (D) HIVA: 0.05 | (D) HIVAdH: 0.09 | (D) dHmP: 0.08 | (D) dHmPG1: 0.57 DOUBTS OF THE COPYIST ABOUT THIS PICTURE: Panel D: the numbers in the top right quadrants of the CD8 / IFN-γ dot plots are printed without a measure or unit, so they are copied as bare numbers.
The ELISPOT assay was performed using the Mouse IFN-γ ELISpot kit (Mabtech) according to the manufacturer's instructions. Spots were visualised using sequential applications of a biotin-conjugated secondary anti-IFN-γ mAb (R4-6A2, Rat IgG1), an alkaline phosphatase and a chromogenic substrate (Bio-Rad) and counted using the AID ELISpot Reader System (Autoimmun Diagnostika).

H-2K^d [2] = molecular target: T1, H-2K^d (Mus musculus, UniProt P01902); experiment: T2 peptide binding assay, H-2K^d; details: Figure S2A, 100 µM to 0.01 µM peptide
Experimental: (§1) TAP2 ([…])-deficient T2 cell lines stably expressing D^d, K^d, and L^d molecules kindly provided by Dr. Ted Hansen (Washington university, U.S.A.) were used to assess the ability of MHCs to bind each peptide. In brief, 1×10^5 cells were incubated with 0/0.1/1.0/10/100 µM peptides in no-serum RPMI (R-0) for 14 h at 37°C, 5% CO2 in a flat-bottomed 96-well plate. 14 h later, cells were transferred to a round-bottomed 96-well plate and washed with PBS before staining the cells with anti-H-2K^d/H-2D^d-PE or anti-H-2L^d-PE (eBioscience) monoclonal antibodies. Cells were then analyzed on a FACS flow cytometer.
(§2) Supplementary file ppat.1002041.s002.pdf: Figure S2 T2 assays for peptide binding affinity for MHC class I. TAPdeficient T2 cell lines stably transformed with H-2Dd, H-2Kd or H-2Ld complexes were kindly provided by Dr Hansen, Washington University. Peptide-loaded MHC complexes were detected by fluorochrome-conjugated mAb (DB Biosciences) and the cells were analyzed using flow cytometer. […]
(§3) Supplementary Figure S2. […] Peptide-loaded MHC complexes were detected by fluorochrome-conjugated mAb (DB Biosciences) and the cells were analyzed using flow cytometer. […]

[3] = system: syngeneic peptide-pulsed cells; experiment: in vivo killing assay (lysis of syngeneic peptide-pulsed cells); design: species or system BALB/c mice; details: HIVAdH vaccinated relative to HIVA vaccination; Figure 1F
[4] = system: syngeneic peptide-pulsed cells; experiment: In vivo lysis assay, epitope hierarchy with boost vector and time; design: species or system BALB/c mice; details: for epitope hierarchy at 100 d: Figure 5, DNA-DNA (pTH.HIVA) regimen, 100 d after last vaccination
[5] = system: CD8^+ splenocytes of immunized mice; format: cell-based, BALB/c mice; details: HIVAdH vs HIVA immunization; ex vivo ICS, Figure 1D
[6] = system: H-2D^d, H-2K^d or H-2L^d complexes; experiment: T2 peptide binding assay, respective MHC class I complexes; details: Figure 3A; TAP-deficient T2 cells, 100 µM to 0.1 µM peptide, 14 h at 37°C, FACS
Experimental: Figure 3 Contributing mechanisms of immunodominance. […] T2 cell lines were incubated with decreasing peptide concentrations ranging from 100 µM to 0.1 µM indicated above the H peptide histogram and the cell surface peptide-loaded MHC complexes were detected by fluorochrome-conjugated mAb (DB Biosciences) and quantified using FACS flow cytometer. B) and C) Groups of 3 BALB/c mice were given 3x immunizations using 100 µg of DNA expressing the index or mutated forms of HIVA at 3 wk intervals and their T cell responses were analyzed 4 wk later. B) Splenocytes were assessed in an ICS assay using peptides indicated above the graphs at concentrations ranging from 10 to 10^−8 µM for 5 h. Cells were gated on IFN-γ-producing CD8^+ T cell populations positive (top) or negative (bottom) for CD107a/b. Note the different y-axis scales on the top and bottom graphs. C) The response kinetics of CD8^+ T cells re-stimulated with 0.1 µM peptides was assessed in an ICS assay in 1-h intervals for a period of 4 h. Data shown are as mean±SD of [CD8^+CD107a/b^+IFN-γ^+ cells at each time point (%)] ÷ [CD8^+CD107a/b^+IFN-γ^+ at 4 h (%)]. One out of two independent experiments is shown.
as §1

[7] = system: CD8^+ splenocytes of DNA-immunized mice; experiment: ICS T cell avidity (peptide titration, CD107a/b and IFN-γ); format: cell-based, BALB/c mice; details: for peak IFN-γ^+CD107a/b^+CD8^+ cell frequencies at 10 µM peptide: Figure 3B, individual determinants when dominant: H in group HIVA, P in HIVAdH, G1 in dHmP, NPP in dHmPG1, 3x 100 µg DNA, 5 h
Experimental: T2 cell lines were incubated with decreasing peptide concentrations ranging from 100 µM to 0.1 µM indicated above the H peptide histogram and the cell surface peptide-loaded MHC complexes were detected by fluorochrome-conjugated mAb (DB Biosciences) and quantified using FACS flow cytometer. B) and C) Groups of 3 BALB/c mice were given 3x immunizations using 100 µg of DNA expressing the index or mutated forms of HIVA at 3 wk intervals and their T cell responses were analyzed 4 wk later. B) Splenocytes were assessed in an ICS assay using peptides indicated above the graphs at concentrations ranging from 10 to 10^−8 µM for 5 h. Cells were gated on IFN-γ-producing CD8^+ T cell populations positive (top) or negative (bottom) for CD107a/b. Note the different y-axis scales on the top and bottom graphs. C) The response kinetics of CD8^+ T cells re-stimulated with 0.1 µM peptides was assessed in an ICS assay in 1-h intervals for a period of 4 h. Data shown are as mean±SD of [CD8^+CD107a/b^+IFN-γ^+ cells at each time point (%)] ÷ [CD8^+CD107a/b^+IFN-γ^+ at 4 h (%)]. One out of two independent experiments is shown.
We also measured avidities of T cell responses recovered through the sequential HIVA epitope up-ranking. First, responsiveness of immune splenocytes following 3 plasmid DNA deliveries was measured in an ICS assay upon re-stimulation with peptide concentrations ranging from 10^−8 to 10 µM for 5 h (Figure 3A).

CD8^+ T cells = experiment: Immunodominance hierarchy of T cell responses to HIVA-derived epitopes; format: cell-based, BALB/c mice; details: 10 d after immunization
H-2D^d = H-2D^d (Mus musculus, UniProt P01900); experiment: T2 peptide binding assay, H-2D^d; details: Figure S2B, 100 µM to 0.01 µM peptide
Experimental: as §1, §2, §3

H-2L^d = H-2L^d (Mus musculus, UniProt P01897); experiment: T2 peptide binding assay, H-2L^d; details: Figure S2B, 100 µM to 0.01 µM peptide
Experimental: as §1, §2, §3

[8] = system: H-2D^d and H-2L^d molecules; details: ref [31], [33]; cited from earlier work
Description: (§4) Our research interests lie in development of the T cell component of HIV-1 vaccines stimulating protective CD8^+ T cell responses. The first-generation T cell immunogen, designated HIVA (Figure 1A), has served as an extremely useful tool for iterative improving of CD8^+ T cell induction by experimental vaccines in mice, non-human primates and humans [reviewed in [30]]. To increase the power of T cell analysis and study the role of subdominant determinants, H-2^d class I-restricted epitopes contained in the HIVA immunogen were mapped in detail. Thus, the most immunodominant epitope of ...

H-2K^d [9] = molecular target: T1, H-2K^d; details: ref [34]; cited from earlier work
Description: as §4

T1 sequence (P01902 whole entry, looked up): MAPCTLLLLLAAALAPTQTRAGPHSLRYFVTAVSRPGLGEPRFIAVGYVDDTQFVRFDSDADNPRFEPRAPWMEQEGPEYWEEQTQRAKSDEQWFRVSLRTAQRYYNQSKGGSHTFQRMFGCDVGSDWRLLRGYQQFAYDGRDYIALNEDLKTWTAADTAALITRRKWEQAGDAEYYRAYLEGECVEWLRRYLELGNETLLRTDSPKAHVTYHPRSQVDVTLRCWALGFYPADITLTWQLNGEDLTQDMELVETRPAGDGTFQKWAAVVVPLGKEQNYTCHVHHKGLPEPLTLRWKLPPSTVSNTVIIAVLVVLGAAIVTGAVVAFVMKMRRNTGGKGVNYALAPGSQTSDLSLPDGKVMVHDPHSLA
Sequence of H-2D^d (P01900 whole entry, looked up): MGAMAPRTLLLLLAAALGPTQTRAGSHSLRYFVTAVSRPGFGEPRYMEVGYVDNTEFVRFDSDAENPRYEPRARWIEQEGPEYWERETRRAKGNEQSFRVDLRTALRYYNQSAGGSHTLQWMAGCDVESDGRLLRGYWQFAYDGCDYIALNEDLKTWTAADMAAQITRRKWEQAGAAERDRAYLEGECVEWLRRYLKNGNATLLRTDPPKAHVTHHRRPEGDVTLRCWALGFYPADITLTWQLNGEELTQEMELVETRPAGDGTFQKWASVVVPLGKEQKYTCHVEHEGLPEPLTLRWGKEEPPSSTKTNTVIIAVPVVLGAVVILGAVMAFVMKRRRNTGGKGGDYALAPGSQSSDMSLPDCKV
Sequence of H-2L^d (P01897 whole entry, looked up): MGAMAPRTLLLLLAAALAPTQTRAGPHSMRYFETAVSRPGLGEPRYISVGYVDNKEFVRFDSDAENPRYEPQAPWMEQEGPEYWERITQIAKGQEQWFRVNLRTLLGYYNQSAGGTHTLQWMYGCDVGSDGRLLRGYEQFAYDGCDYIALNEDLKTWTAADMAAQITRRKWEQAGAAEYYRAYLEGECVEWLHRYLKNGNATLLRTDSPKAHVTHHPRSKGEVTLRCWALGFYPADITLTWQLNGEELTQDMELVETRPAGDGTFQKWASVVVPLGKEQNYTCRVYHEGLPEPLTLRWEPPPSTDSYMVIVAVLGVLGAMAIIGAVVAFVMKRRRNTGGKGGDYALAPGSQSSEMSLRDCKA

## AMEFLKDTA [altered G1 peptide]
[1]
  recognition of altered peptides by splenocytes (IFN-γ): unable to recognize
H-2K^d [2]
  binding to H-2K^d: unable to bind

## IFGSSMTKA [altered P peptide]
[1]
  recognition of altered peptides by splenocytes (IFN-γ): unable to recognize
H-2K^d [2]
  binding to H-2K^d: unable to bind

## IFQSSMTKI [P]
[3]
  in vivo lysis of peptide-pulsed targets: increased in vivo lysis
[4]
  epitope hierarchy at 100 d: replaced by T cells specific for peptide P
[5]
  frequencies of IFN-γ-producing CD8^+ cells: noticeably, though not significantly increased
[6]
  peptide binding affinities for respective MHC class I: directly correlated with the immunodominance hierarchy
[7]
  peak IFN-γ^+CD107a/b^+CD8^+ cell frequencies at 10 µM peptide: 3.3 % of total CD8^+ splenocytes
CD8^+ T cells
  hierarchy of T cell responses against HIVA-derived epitopes: H>P>>G1>NPP>>G2

## NPPIPVGDI
H-2D^d
  restriction / binding to H-2D^d: restricted by H-2D^d and H-2L^d
[7]
  peak IFN-γ^+CD107a/b^+CD8^+ cell frequencies at 10 µM peptide: 0.8 % of total CD8^+ splenocytes
CD8^+ T cells
  hierarchy of T cell responses against HIVA-derived epitopes: H>P>>G1>NPP>>G2
H-2L^d
  restriction / binding to H-2L^d: restricted by H-2D^d and H-2L^d

## NPPIPVGDIYKRWIILGLNK
[1]; dHmPG1-immunized mice, overlapping 15/11 peptides across HIVA
  T cell response to peptide in epitope search: a response was detected

## RGPGRAFVTI [H]
[8]
  MHC class I restriction (H-2D^d and H-2L^d): restricted by H-2D^d and H-2L^d molecules
[4]
  epitope hierarchy at 100 d: no longer dominated the anti-HIVA response
[4]; double or triple DNA prime-boost regimen, 28 d post vaccination
  epitope hierarchy at 28 d: the strongest at 28 d post vaccination
[6]
  peptide binding affinities for respective MHC class I: directly correlated with the immunodominance hierarchy
[7]; Figure 3B bottom, following HIVA vaccination, low, but significant
  IFN-γ response in non-degranulating IFN-γ^+CD107a/b^−CD8^+ cells: 0.65 % of total CD8^+ cells
[7]
  peak IFN-γ^+CD107a/b^+CD8^+ cell frequencies at 10 µM peptide: 3.2 % of total CD8^+ splenocytes
CD8^+ T cells
  hierarchy of T cell responses against HIVA-derived epitopes: H>P>>G1>NPP>>G2

## TTSTLQEQI [G2, Gag residues 239–247]
[1]; immunization with dHmPG1 vaccine
  restoration of G2-specific response: failed to restore the G2-specific response
H-2K^d [9]
  MHC class I restriction (H-2K^d): H-2K^d-restricted
[5]
  frequencies of IFN-γ-producing CD8^+ cells: undetectable
[6]
  peptide binding affinities for respective MHC class I: directly correlated with the immunodominance hierarchy
CD8^+ T cells
  hierarchy of T cell responses against HIVA-derived epitopes: H>P>>G1>NPP>>G2

Reference: PMC3098219, “Protective Efficacy of Serially Up-Ranked Subdominant CD8^+ T Cell Epitopes against Virus Challenges” (PLoS Pathogens, 2011)
